Results taken from US10472356B2, “Bicyclic ketone sulfonamide compounds” (AMGEN INC., priority 2015, dated 2019).

Key:
[1] = target: T1, human Nav1.7 (Homo sapiens, UniProt Q15858); experiment: Nav 1.7 In Vitro PatchXpress (PX) Assay; type: cell-based; conditions: HEK 293 cells stably transfected with human Nav1.7; PatchXpress whole cell voltage clamp; partially inactivated state (holding potential yielding 20 to 50% inactivation); read-out: hNav1.7 PX IC50
T1 construct: expressed in transfected cells; host or cells: HEK293
Method: Nav 1.7 In Vitro PatchXpress (PX) Assay
HEK 293 cells stably transfected with human Nav1.7 were recorded in whole cell voltage clamp mode with the PatchXpress automated electrophysiology system (Molecular Devices, LLC, Sunnyvale, Calif.). Compound effects were measured on a partially inactivated state of the sodium channel. Cells were clamped to a holding potential yielding 20 to 50% inactivation. To elicit sodium current, channels were activated by pulsing to −10 mV for 20 msec. This voltage protocol was repeated at a rate of 0.1 Hz throughout the experiment. A single concentration of test compound was applied to cells for a duration of 3 minutes. Peak sodium current was measured at the end of the compound addition period to determine percent inhibition. Three to five cells were tested per concentration, and IC50 curves were fitted to percent inhibition as a function of concentration.

[2] = target: T1, human Nav1.7; experiment: Nav 1.7 IWB In Vitro Assay (IonWorks Barracuda); type: cell-based; conditions: HEK293 cells stably transfected with human Nav 1.7; IonWorks Barracuda population patch-clamp; cells clamped to −20 mV for 4 minutes with compound; 26th pulse; read-out: hNav1.7 IWB IC50
Method: Nav 1.7 IWB In Vitro Assay
HEK293 cells stably transfected with human Nav 1.7 were recorded in population patch-clamp mode with the IonWorks© Barracuda (IWB) automated electrophysiology system (Molecular Devices, LLC, Sunnyvale, Calif.). From a holding potential of −110 mV, sodium currents were elicited by a train of 26 depolarizations of 150 ms duration to −20 mV at a frequency of 5 Hz. Cells were then clamped to −20 mV for a period of 4 minutes in the presence of a single concentration of test compound. Following this compound incubation period, cells were clamped to −110 mV for three seconds to recover unbound channels and put through the same 26 pulse voltage protocol as above. Peak inward current during the 26th pulse to −20 mV in the presence of compound was divided by the peak inward current evoked by the 26th pulse to −20 mV in the absence of compound to determine percent inhibition. Concentration-response curves of percent inhibition as a function of concentration were generated to calculate IC50 values.

T1 sequence (Q15858 whole entry): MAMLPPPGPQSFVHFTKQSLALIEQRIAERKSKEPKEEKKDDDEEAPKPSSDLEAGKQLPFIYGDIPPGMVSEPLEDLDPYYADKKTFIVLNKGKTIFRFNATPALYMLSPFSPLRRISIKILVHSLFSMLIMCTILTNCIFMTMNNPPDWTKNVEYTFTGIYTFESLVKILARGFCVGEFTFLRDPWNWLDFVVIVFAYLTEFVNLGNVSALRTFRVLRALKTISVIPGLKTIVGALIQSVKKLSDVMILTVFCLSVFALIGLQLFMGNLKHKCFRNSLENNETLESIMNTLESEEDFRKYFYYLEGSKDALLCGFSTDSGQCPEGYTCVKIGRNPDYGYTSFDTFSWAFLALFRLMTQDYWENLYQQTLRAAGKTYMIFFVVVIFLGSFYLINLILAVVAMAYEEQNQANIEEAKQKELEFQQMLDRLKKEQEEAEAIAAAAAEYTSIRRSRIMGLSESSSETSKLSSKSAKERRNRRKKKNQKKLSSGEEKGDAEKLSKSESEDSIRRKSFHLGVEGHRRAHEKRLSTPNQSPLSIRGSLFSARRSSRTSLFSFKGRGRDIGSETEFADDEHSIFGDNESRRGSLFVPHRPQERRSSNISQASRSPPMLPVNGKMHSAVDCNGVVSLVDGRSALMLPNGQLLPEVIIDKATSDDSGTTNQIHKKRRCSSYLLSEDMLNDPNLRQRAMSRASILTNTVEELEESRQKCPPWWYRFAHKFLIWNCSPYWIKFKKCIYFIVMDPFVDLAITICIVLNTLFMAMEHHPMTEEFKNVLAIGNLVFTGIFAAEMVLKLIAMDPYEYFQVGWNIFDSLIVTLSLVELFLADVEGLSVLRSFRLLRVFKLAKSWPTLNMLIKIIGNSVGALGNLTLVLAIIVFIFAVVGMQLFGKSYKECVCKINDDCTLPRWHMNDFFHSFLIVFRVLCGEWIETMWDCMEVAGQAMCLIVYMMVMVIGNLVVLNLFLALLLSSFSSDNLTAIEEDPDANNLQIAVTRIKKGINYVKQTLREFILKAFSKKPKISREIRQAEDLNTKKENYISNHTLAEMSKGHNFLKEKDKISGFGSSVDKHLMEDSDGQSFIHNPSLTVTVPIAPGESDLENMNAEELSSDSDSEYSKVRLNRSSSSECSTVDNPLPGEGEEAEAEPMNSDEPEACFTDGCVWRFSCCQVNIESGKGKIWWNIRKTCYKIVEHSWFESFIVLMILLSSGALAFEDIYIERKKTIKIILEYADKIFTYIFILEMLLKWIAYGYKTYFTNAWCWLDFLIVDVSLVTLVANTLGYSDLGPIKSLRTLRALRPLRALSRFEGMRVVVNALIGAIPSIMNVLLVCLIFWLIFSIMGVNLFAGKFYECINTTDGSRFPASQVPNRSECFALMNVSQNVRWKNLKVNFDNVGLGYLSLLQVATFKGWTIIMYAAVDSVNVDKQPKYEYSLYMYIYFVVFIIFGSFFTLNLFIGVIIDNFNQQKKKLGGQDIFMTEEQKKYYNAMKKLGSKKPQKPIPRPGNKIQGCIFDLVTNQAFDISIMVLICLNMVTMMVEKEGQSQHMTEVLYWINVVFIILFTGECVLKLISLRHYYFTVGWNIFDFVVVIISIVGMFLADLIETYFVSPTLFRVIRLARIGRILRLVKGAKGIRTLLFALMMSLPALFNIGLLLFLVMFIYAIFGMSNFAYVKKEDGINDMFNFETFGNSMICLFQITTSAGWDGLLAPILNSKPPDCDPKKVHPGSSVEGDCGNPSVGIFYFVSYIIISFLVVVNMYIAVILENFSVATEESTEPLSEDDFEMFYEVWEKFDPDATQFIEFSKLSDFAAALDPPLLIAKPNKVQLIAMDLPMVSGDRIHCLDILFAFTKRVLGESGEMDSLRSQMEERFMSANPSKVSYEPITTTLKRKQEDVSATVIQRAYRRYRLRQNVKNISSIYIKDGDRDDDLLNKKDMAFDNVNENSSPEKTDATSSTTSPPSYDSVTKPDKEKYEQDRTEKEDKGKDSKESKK

IC50 [1] | IC50 [2] | Structure (SMILES)
> 30 µM | > 2.5 µM | COc1cc(-c2ccc(F)c(C)c2)c(F)cc1-n1c2c(ccc1=O)CN(S(=O)(=O)Nc1ncccn1)CC2 (single isomer, unassigned) [Example 29-M, M-1-(2,4′-difluoro-5-methoxy-3′-methyl-4-biphenylyl)-2-oxo-N-2-pyrimidinyl-1,5,7,8-tetrahydro-1,6-naphthyridine-6(2H)-sulfonamide]
17.1 µM | 1.94 µM | COc1cc(-c2cccc(OC(F)F)c2)c(F)cc1-n1c2c(ccc1=O)CN(S(=O)(=O)Nc1ccon1)CC2 (single isomer, unassigned) [Example 19-M, M-1-(3′-(difluoromethoxy)-2-fluoro-5-methoxy-4-biphenylyl)-N-3-isoxazolyl-2-oxo-1,5,7,8-tetrahydro-1,6-naphthyridine-6(2H)-sulfonamide]
0.254 µM | 0.0167 µM | COc1cc(-c2cc(F)cc(Cl)c2)ccc1-n1c2c(ccc1=O)CN(S(=O)(=O)Nc1ccon1)CC2 (racemic) [7-(Rac), (Rac)-1-(3′-chloro-5′-fluoro-3-methoxy-4-biphenylyl)-N-3-isoxazolyl-2-oxo-1,5,7,8-tetrahydro-1,6-naphthyridine-6(2H)-sulfonamide]
0.499 µM | 0.0805 µM | COc1cc(-c2ccc(F)c(F)c2)c(F)cc1-n1c2c(ccc1=O)CN(S(=O)(=O)Nc1ncccn1)CC2 (single isomer, unassigned) [Example 28-P, P-2-oxo-N-2-pyrimidinyl-1-(2,3′,4′-trifluoro-5-methoxy-4-biphenylyl)-1,5,7,8-tetrahydro-1,6-naphthyridine-6(2H)-sulfonamide]
> 1 µM | 8.52 µM | COc1cc(-c2cc(F)cc(F)c2)c(F)cc1-n1c2c(ccc1=O)CN(S(=O)(=O)Nc1ccon1)[C@@H](C)C2 (single isomer, unassigned) [Example 3-C-M]
0.612 µM | 0.102 µM | COc1cc(-c2cc(F)cc(F)c2)c(F)cc1-n1c2c(ccc1=O)CN(S(=O)(=O)Nc1ncc(F)cn1)CC2 (single isomer, unassigned) [Example 10-M, M-N-(5-fluoro-2-pyrimidinyl)-2-oxo-1-(2,3′,5′-trifluoro-5-methoxy-4-biphenylyl)-1,5,7,8-tetrahydro-1,6-naphthyridine-6(2H)-sulfonamide]
> 1 µM |  | COc1cc(-c2cc(F)cc(F)c2)c(F)cc1-n1c2c(ccc1=O)CN(S(=O)(=O)Nc1ncon1)CC2 (single isomer, unassigned) [Example 17-P, P-N-1,2,4-oxadiazol-3-yl-2-oxo-1-(2,3′,5′-trifluoro-5-methoxy-4-biphenylyl)-1,5,7,8-tetrahydro-1,6-naphthyridine-6(2H)-sulfonamide]
> 1 µM |  | COc1ccccc1-n1c2c(ccc1=O)CN(S(=O)(=O)Nc1ccon1)CC2 (racemic) [Example 27, (Rac)-N-3-isoxazolyl-1-(2-methoxyphenyl)-2-oxo-1,5,7,8-tetrahydro-1,6-naphthyridine-6(2H)-sulfonamide]
0.0803 µM |  | COc1cc(-c2ccc(F)c(Cl)c2)c(F)cc1-n1c2c(ccc1=O)CN(S(=O)(=O)Nc1cccnn1)CC2 [Example 48, P-1-(3′-chloro-2,4′-difluoro-5-methoxy-4-biphenylyl)-2-oxo-N-3-pyridazinyl-1,5,7,8-tetrahydro-1,6-naphthyridine-6(2H)-sulfonamide]
0.0951 µM |  | COc1cc(-c2ccc(Cl)c(F)c2)c(F)cc1-n1c2c(ccc1=O)CN(S(=O)(=O)Nc1cccnn1)CC2 [Example 47, P-1-(4′-chloro-2,3′-difluoro-5-methoxy-4-biphenylyl)-2-oxo-N-3-pyridazinyl-1,5,7,8-tetrahydro-1,6-naphthyridine-6(2H)-sulfonamide]
0.232 µM |  | COc1ccc(-c2cccc(Cl)c2C)cc1-n1c2c(ccc1=O)CN(S(=O)(=O)Nc1cccnn1)CC2 [Example 57-P, P-1-(3′-chloro-4-methoxy-2′-methyl-3-biphenylyl)-2-oxo-N-3-pyridazinyl-1,5,7,8-tetrahydro-1,6-naphthyridine-6(2H)-sulfonamide]
> 1 µM |  | COc1cc(C(F)(F)F)ccc1-n1c2c(ccc1=O)CN(S(=O)(=O)Nc1ccon1)CC2 (single isomer, unassigned) [Example 26-P, P-N-3-isoxazolyl-1-(2-methoxy-4-(trifluoromethyl)phenyl)-2-oxo-1,5,7,8-tetrahydro-1,6-naphthyridine-6(2H)-sulfonamide]
0.0298 µM |  | COc1cc(-c2cccc(C(F)(F)F)c2)c(F)cc1-n1c2c(ccc1=O)CN(S(=O)(=O)Nc1cccnn1)CC2 [Example 45, P-1-(2-fluoro-5-methoxy-3′-(trifluoromethyl)-4-biphenylyl)-2-oxo-N-3-pyridazinyl-1,5,7,8-tetrahydro-1,6-naphthyridine-6(2H)-sulfonamide]
> 1 µM |  | COc1ccc(-c2ccc(C)c(Cl)c2)cc1-n1c2c(ccc1=O)CN(S(=O)(=O)Nc1cccnn1)CC2 (single isomer, unassigned) [Example 55-M, M-1-(3′-chloro-4-methoxy-4′-methyl-3-biphenylyl)-2-oxo-N-3-pyridazinyl-1,5,7,8-tetrahydro-1,6-naphthyridine-6(2H)-sulfonamide]
0.0732 µM |  | COc1cc(-c2ccc(C)c(Cl)c2)c(F)cc1-n1c2c(ccc1=O)CN(S(=O)(=O)Nc1cccnn1)CC2 [Example 44, P-1-(3′-chloro-2-fluoro-5-methoxy-4′-methyl-4-biphenylyl)-2-oxo-N-3-pyridazinyl-1,5,7,8-tetrahydro-1,6-naphthyridine-6(2H)-sulfonamide]
0.168 µM |  | COc1cc(-c2cccc(Cl)c2F)c(F)cc1-n1c2c(ccc1=O)CN(S(=O)(=O)Nc1cccnn1)CC2 [Example 49, P-1-(3′-chloro-2,2′-difluoro-5-methoxy-4-biphenylyl)-2-oxo-N-3-pyridazinyl-1,5,7,8-tetrahydro-1,6-naphthyridine-6(2H)-sulfonamide]
> 1 µM |  | COc1cc(-c2cc(F)cc(F)c2)c(F)cc1-n1c2c(ccc1=O)CN(S(=O)(=O)Nc1ccon1)CC2 (single isomer, unassigned) [Example 25-M, M-N-3-isoxazolyl-2-oxo-1-(2,3′,5′-trifluoro-5-methoxy-4-biphenylyl)-1,5,7,8-tetrahydro-1,6-naphthyridine-6(2H)-sulfonamide]
0.209 µM |  | COc1cc(-c2cc(F)cc(F)c2)c(F)cc1-n1c2c(ccc1=O)CN(S(=O)(=O)Nc1ccon1)CC2 (racemic) [Example 25-(Rac), (Rac)-N-3-isoxazolyl-2-oxo-1-(2,3′,5′-trifluoro-5-methoxy-4-biphenylyl)-1,5,7,8-tetrahydro-1,6-naphthyridine-6(2H)-sulfonamide]
> 1 µM |  | COc1cc(C(F)(F)F)ccc1-n1c2c(ccc1=O)CN(S(=O)(=O)Nc1ccon1)CC2 (single isomer, unassigned) [Example 26-M, M-N-3-isoxazolyl-1-(2-methoxy-4-(trifluoromethyl)phenyl)-2-oxo-1,5,7,8-tetrahydro-1,6-naphthyridine-6(2H)-sulfonamide]
0.172 µM |  | COc1cc(-c2cnc(OC)c(Cl)c2)c(F)cc1-n1c2c(ccc1=O)CN(S(=O)(=O)Nc1cccnn1)CC2 [Example 50, P-1-(4-(5-chloro-6-methoxy-3-pyridinyl)-5-fluoro-2-methoxyphenyl)-2-oxo-N-3-pyridazinyl-1,5,7,8-tetrahydro-1,6-naphthyridine-6(2H)-sulfonamide]
0.71 µM |  | COc1ccc(-c2ccc(C)c(Cl)c2)cc1-n1c2c(ccc1=O)CN(S(=O)(=O)Nc1cccnn1)CC2 (single isomer, unassigned) [Example 55-P, P-1-(3′-chloro-4-methoxy-4′-methyl-3-biphenylyl)-2-oxo-N-3-pyridazinyl-1,5,7,8-tetrahydro-1,6-naphthyridine-6(2H)-sulfonamide]
9.34 µM |  | COc1cc(-c2cc(F)cc(Cl)c2)c(F)cc1-n1c2c(ccc1=O)CN(S(=O)(=O)Nc1ccc(F)cn1)CC2 (single isomer, unassigned) [Example 12-M, M-1-(3′-chloro-2,5′-difluoro-5-methoxy-4-biphenylyl)-N-(5-fluoro-2-pyridinyl)-2-oxo-1,5,7,8-tetrahydro-1,6-naphthyridine-6(2H)-sulfonamide]
0.493 µM |  | COc1ccc(-c2ccc(Cl)c(C)c2)cc1-n1c2c(ccc1=O)CN(S(=O)(=O)Nc1cccnn1)CC2 [Example 56-P, P-1-(4′-chloro-4-methoxy-3′-methyl-3-biphenylyl)-2-oxo-N-3-pyridazinyl-1,5,7,8-tetrahydro-1,6-naphthyridine-6(2H)-sulfonamide]
